System: adipose cells of rats
Test: Evaluation of the sugar transporting capacity (2-[14C(U)]-deoxy-D-glucose incorporation)
Assay type: cell-based
Conditions: insulin 100 nM; isolated rat adipose cells
Experimental: After the decapitation and venesection of 6 male Wistar rats (body weight: 150 to 200 g), an incision was made in the abdomen of each rat to extract 6 g in total of epididymal adipose tissues. The tissues were finely cut into 2 mm×2 mm pieces in 6 ml of KRH (Krebs-Ringer Hepes, composition: 130 mM of sodium chloride, 4.7 mM of potassium chloride, 1.2 mM of potassium dihydrogenphosphate, 1.2 mM of magnesium sulfate, 1 mM of calcium chloride and 25 mM of Hepes, pH=7.6) containing 5% of BSA (bovine serum albumin). 24 mg of collagenase (type I) was added thereto and the digestion treatment was conducted for about 40 minutes to obtain about 6 ml of isolated adipose cells. The collagenase was removed by the buffer exchange. 2% BSA/KRH solution was added to the residue for the re-suspension to obtain 45 ml of an adipose cell suspension.
The sugar transporting capacity of the compound of the present invention was evaluated with reference to a method described in a literature [Annual Review of Biochemistry, Vol. 55, p. 1059 (1986)]. […]
The sugar transporting capacity was evaluated by measuring the quantity of 2-[^14C(U)]-deoxy-D-glucose incorporated per a unit time. […] The quantity of 2-[^14C(U)]-deoxy-D-glucose contained in the adipose cell layer was determined with a liquid scintillation counter to determine the quantity of the incorporated sugar. […]

**Q.** How did the “effect of increasing the sugar-transporting capacity versus insulin-free control group” value turn out when insulin was run?
**A.** The value was “about 7 times”.

From patent publication US8299064B2, “Fused polycyclic compounds having a heterocyclic ring(s) and pharmaceutical use thereof” (priority 2003, dated 2012)
